Experimental findings from patent US5589510A, “Method for inhibiting retroviral infection by administering a naphthalenesulfonic acid compound” (priority 1995, dated 1996) are described below.

By LD50 is commonly meant the dose at which mortality reaches 50%. In general, inhibition refers to how much of the control response was suppressed.

Data set [1] deals with TA98, TA1535, TA1537, TA1538, TA100 and W2P2uvr. The experiment in a line: Ames Test (in the presence of S9). The format is cell-based, Salmonella typhimurium. To be noted: for Ames Test, specific mutagenic activity: the higher the value, the higher the mutagenicity. An excerpt: Six Salmonella typhimuriumstrai strains, TA98, TA1535, TA1537, TA1538, TA100 and W2P2uvr were used in this experiment.

Another data set can be described thus: LD50, intravenous, mice. The format is in vivo. Conditions: mouse, in vivo, female mice, mortalities within 1 week. How it is done:
The test material was administered intravenously to 5 female mice in five increasing doses. Mortalities were recorded within 1 week, and the LD50 was determined with the aid of statistical calculations.

A further data set deals with HIV-1 RF. The experiment in a line: Antiviral assay, Experimental Protocol I (compound added after infection). The format is cell-based. Conditions: Human immunodeficiency virus 1, 240 h, p24 ELISA, read-out: % Inhibition (after day 10); for inhibition at 1.25 µg/mL: 1.25 μg/ml; for inhibition at 2.5 µg/mL: 2.5 μg/ml; for inhibition at 5 µg/mL: 5 μg/ml; for inhibition at 0.6 µg/mL: 0.6 μg/ml. As to the method:
HIV-1 infectivity studies were conducted in CEM, H9, MT2 cells and peripheral blood mononuclear cells (PBMC). CEM, H9 and MT2 were grown in RPMI1640 medium, 10% heat-inactivated fetal bovine serum (FBS). PBMCs were stimulated with 4 μg/ml PHA for 48 hours in RPMI1640, 10% FBS before HIV-1 infection. After HIV-1 infection, PBMCs were maintained in RPMI 1640, 10% FBS and 10 10 units/ml IL-2. The major HIV-1 isolates used were MN, IIIB, SF2, AZT-sensitive A018 and AZT-resistant A018 provided by NIH AIDS research and reference reagent program. Two major antiviral assays were developed to determine the antiviral activities of the compounds of this invention (as inhibitors).
I. The cells were infected with HIV-1 RF or IIIB at an infectivity multiplicity (moi) of 0.001 in the absence of a compound of this invention for one hour. HIV-1 infected cells were washed once with PBS, resuspended in RPMI1640, 10% FBS medium and distributed in 24-well culture dishes (5×10^5 cells per well) in the presence of a compound of this invention as inhibitor. […]

Where two headings read alike, the source gives them in different places.

As for `COc1cc(N=Nc2c(S(=O)(=O)O)cc3cc(S(=O)(=O)O)cc(NC(=O)c4cccc(Cl)c4Cl)c3c2O)c(OC)cc1N=Nc1c(S(=O)(=O)O)cc2cc(S(=O)(=O)O)cc(NC(=O)Cc3ccccc3)c2c1O` [Compound 2], in data set [1], the “Ames Test result” value is reported as “Negative”. The compound also showed an LD50 at 168 h in “LD50, intravenous, mice” of 150 mg/kg. For the same compound, in the data set on HIV-1 RF (10% FCS), the inhibition at 1.25 µg/mL stood at 60%, the inhibition at 2.5 µg/mL is 73% and the inhibition at 5 µg/mL is 98%.
In the case of `COc1cc(N=Nc2c(S(=O)(=O)O)cc3cc(S(=O)(=O)O)cc(NC(=O)c4cccc(Cl)c4Cl)c3c2O)c(OC)cc1N=Nc1c(S(=O)(=O)O)cc2cc(S(=O)(=O)O)cc(NC(=O)c3cccc(Cl)c3Cl)c2c1O` [Compound 8], the “Ames Test result” value in data set [1] is recorded as “Negative”. This compound gave an LD50 at 168 h in “LD50, intravenous, mice” of 160 mg/kg. Moreover, in the data set on HIV-1 RF (10% FCS), the inhibition at 0.6 µg/mL is 87%, the inhibition at 1.25 µg/mL was 99%, the inhibition at 2.5 µg/mL was determined as 99% and the inhibition at 5 µg/mL is 99%. Moreover, in the data set on HIV-1 RF (50% Human Serum), the inhibition at 1.25 µg/mL came out at 0%, the inhibition at 2.5 µg/mL turned out to be 0% and the inhibition at 5 µg/mL is 95%.
With `COc1cc(N=Nc2c(S(=O)(=O)O)cc3cc(S(=O)(=O)O)cc(NC(=O)c4cccc(Cl)c4Cl)c3c2O)c(OC)cc1N=Nc1c(S(=O)(=O)O)cc2cc(S(=O)(=O)O)cc(NC(=O)c3cc(Cl)ccc3Cl)c2c1O` [Compound 9], the “Ames Test result” value in data set [1] is recorded as “Negative”. The compound also showed an LD50 at 168 h in the data set “LD50, intravenous, mice” of 150 mg/kg. Also, in the data set on HIV-1 RF (10% FCS), the inhibition at 0.6 µg/mL is 63%, the inhibition at 1.25 µg/mL turned out to be 99%, the inhibition at 2.5 µg/mL turned out to be 99% and the inhibition at 5 µg/mL came out at 100%. In the data set on HIV-1 RF (50% Human Serum), the inhibition at 0.6 µg/mL is 0%, the inhibition at 1.25 µg/mL worked out at 0%, the inhibition at 2.5 µg/mL was 16% and the inhibition at 5 µg/mL is 90%.
For the compound `COc1cc(N=Nc2c(S(=O)(=O)O)cc3cc(S(=O)(=O)O)cc(NC(=O)c4cccc5ccccc45)c3c2O)c(OC)cc1N=Nc1c(S(=O)(=O)O)cc2cc(S(=O)(=O)O)cc(NC(=O)c3ccc(C(F)(F)F)cc3)c2c1O` [Compound 19], the “Ames Test result” value in data set [1] is listed as “Negative”. This compound had an LD50 at 168 h in the data set “LD50, intravenous, mice” of 140 mg/kg.
For the compound `COc1cc(N=Nc2c(S(=O)(=O)O)cc3cc(S(=O)(=O)O)cc(NC(=O)c4ccc(Cl)cc4Cl)c3c2O)c(OC)cc1N=Nc1c(S(=O)(=O)O)cc2cc(S(=O)(=O)O)cc(NC(=O)Cc3cccc4ccccc34)c2c1O` [Compound 20], in data set [1], the “Ames Test result” value was “Positive” and the “Ames Test, specific mutagenic activity” value is listed as 0.08 colony no/μg. This compound yielded an LD50 at 168 h in the data set “LD50, intravenous, mice” of 150 mg/kg.
The corresponding values for `COc1cc(N=Nc2c(S(=O)(=O)O)cc3cc(S(=O)(=O)O)cc(NC(=O)c4cccc([N+](=O)[O-])c4)c3c2O)c(OC)cc1N=Nc1c(S(=O)(=O)O)cc2cc(S(=O)(=O)O)cc(NC(=O)c3ccccc3)c2c1O` [Compound 22] are “Positive”, 0.4 colony no/μg and 140 mg/kg.
For the compound `COc1cc(N=Nc2c(S(=O)(=O)O)cc3cc(S(=O)(=O)O)cc(NC(=O)c4ccc(C)cc4)c3c2O)c(OC)cc1N=Nc1c(S(=O)(=O)O)cc2cc(S(=O)(=O)O)cc(NC(=O)c3ccccc3)c2c1O` [Compound 23], the “Ames Test result” value in data set [1] is given as “Negative”. The LD50 at 168 h in the data set “LD50, intravenous, mice” came out at 130 mg/kg.
For the compound `COc1cc(N=Nc2c(S(=O)(=O)O)cc3cc(S(=O)(=O)O)cc(NC(=O)c4ccccc4)c3c2O)c(OC)cc1N=Nc1c(S(=O)(=O)O)cc2cc(S(=O)(=O)O)cc(NC(=O)Nc3ccc(F)cc3)c2c1O` [Compound 24], the “Ames Test result” value in data set [1] is reported as “Negative”. The LD50 at 168 h in “LD50, intravenous, mice” was 140 mg/kg.
The corresponding values for `COc1cc(N=Nc2c(S(=O)(=O)O)cc3cc(S(=O)(=O)O)cc(NC(=O)c4ccccc4OC)c3c2O)c(OC)cc1N=Nc1c(S(=O)(=O)O)cc2cc(S(=O)(=O)O)cc(NC(=O)c3ccccc3)c2c1O` [Compound 25] are “Negative” and 160 mg/kg.
In the case of `COc1cc(N=Nc2c(S(=O)(=O)O)cc3cc(S(=O)(=O)O)cc(NC(=O)c4ccc(C#N)cc4)c3c2O)c(OC)cc1N=Nc1c(S(=O)(=O)O)cc2cc(S(=O)(=O)O)cc(NC(=O)c3ccccc3)c2c1O` [Compound 26], in data set [1], the “Ames Test result” value is “Negative”. The LD50 at 168 h in the data set “LD50, intravenous, mice” worked out at 150 mg/kg.
For the compound `O=C(Nc1cc(S(=O)(=O)O)cc2cc(S(=O)(=O)O)c(N=Nc3ccc(N=Nc4c(S(=O)(=O)O)cc5cc(S(=O)(=O)O)cc(NC(=O)c6cccc(Cl)c6Cl)c5c4O)cc3)c(O)c12)c1ccc(Cl)cc1Cl` [Compound 29], the “Ames Test result” value in data set [1] is reported as “Negative”.
On the same count and under the same terms, next, `O=C(Nc1cc(S(=O)(=O)O)cc2cc(S(=O)(=O)O)c(N=Nc3ccc(N=Nc4c(S(=O)(=O)O)cc5cc(S(=O)(=O)O)cc(NC(=O)c6cccc(Cl)c6Cl)c5c4O)c(Cl)c3)c(O)c12)c1ccc(Cl)cc1Cl` [Compound 30]: “Negative”.
As to `Cc1cc(N=Nc2c(S(=O)(=O)O)cc3cc(S(=O)(=O)O)cc(NC(=O)c4cccc(Cl)c4Cl)c3c2O)c(C)cc1N=Nc1c(S(=O)(=O)O)cc2cc(S(=O)(=O)O)cc(NC(=O)c3ccc(Cl)cc3Cl)c2c1O` [Compound 31], the “Ames Test result” value in data set [1] is listed as “Negative”. In addition, in the data set on HIV-1 RF (10% FCS), the inhibition at 1.25 µg/mL stood at 0%, the inhibition at 2.5 µg/mL is 88% and the inhibition at 5 µg/mL was determined as 100%.
Take `COc1cc(N=Nc2c(O)ccc3ccc(S(=O)(=O)O)cc23)c(OC)cc1N=Nc1c(S(=O)(=O)O)cc2cc(S(=O)(=O)O)cc(NC(=O)c3ccc(Cl)cc3Cl)c2c1O` [Compound 34]: the “Ames Test result” value in data set [1] is recorded as “Negative”.
Same read-out and setting: next, `COc1cc(N=Nc2c(O)ccc3ccc(S(=O)(=O)O)cc23)c(OC)cc1N=Nc1c(S(=O)(=O)O)cc2cc(S(=O)(=O)O)cc(NC(=O)c3cccc(C(F)(F)F)c3)c2c1O` [Compound 36]: “Negative”; `COc1cc(N=Nc2c(O)ccc3ccc(S(=O)(=O)O)cc23)c(OC)cc1N=Nc1c(S(=O)(=O)O)cc2cc(S(=O)(=O)O)cc(NC(=O)c3ccc(C#N)cc3)c2c1O` [Compound 37]: “Negative”.
As for `COc1cc(N=Nc2c(O)ccc3ccc(S(=O)(=O)O)cc23)c(OC)cc1N=Nc1c(S(=O)(=O)O)cc2cc(S(=O)(=O)O)cc(NC(=O)c3cccc4ccccc34)c2c1O` [Compound 38], the “Ames Test result” value in data set [1] is “Negative”. Moreover, in the data set on HIV-1 RF (10% FCS), the inhibition at 1.25 µg/mL was determined as 99%, the inhibition at 2.5 µg/mL is 99% and the inhibition at 5 µg/mL was found to be 100%.
Take `COc1cc(N=Nc2c(O)ccc3ccc(S(=O)(=O)O)cc23)c(OC)cc1N=Nc1c(S(=O)(=O)O)cc2cc(S(=O)(=O)O)cc(NC(=O)c3ccc4ccccc4c3)c2c1O` [Compound 39]: the “Ames Test result” value in data set [1] is “Negative”.
Still for that read-out and setting: next, `COc1cc(N=Nc2c(O)ccc3ccc(S(=O)(=O)O)cc23)c(OC)cc1N=Nc1c(S(=O)(=O)O)cc2cc(S(=O)(=O)O)cc(NC(=O)c3cccnc3)c2c1O` [Compound 40]: “Negative”; `COc1cc(N=Nc2c(O)ccc3ccc(S(=O)(=O)O)cc23)c(OC)cc1N=Nc1c(S(=O)(=O)O)cc2cc(S(=O)(=O)O)cc(NC(=O)COc3ccccc3)c2c1O` [Compound 41]: “Negative”.
For `COc1cc(N=Nc2c(O)ccc3ccc(S(=O)(=O)O)cc23)c(OC)cc1N=Nc1c(S(=O)(=O)O)cc2cc(S(=O)(=O)O)cc(NC(=O)Cc3cccc4ccccc34)c2c1O` [Compound 42], in data set [1], the “Ames Test result” value is listed as “Negative”. In the data set on HIV-1 RF (10% FCS), the inhibition at 1.25 µg/mL was 28%, the inhibition at 2.5 µg/mL was 99% and the inhibition at 5 µg/mL was determined as 99%.
Regarding `CCC(C)(C)c1ccc(OCC(=O)Nc2cc(S(=O)(=O)O)cc3cc(S(=O)(=O)O)c(N=Nc4cc(OC)c(N=Nc5c(O)ccc6ccc(S(=O)(=O)O)cc56)cc4OC)c(O)c23)c(C(C)(C)CC)c1` [Compound 43], in data set [1], the “Ames Test result” value is “Negative”. Besides, in the data set with HIV-1 RF (10% FCS), the inhibition at 1.25 µg/mL was found to be 0%, the inhibition at 2.5 µg/mL turned out to be 0% and the inhibition at 5 µg/mL is 99%.
Take `O=C(Nc1cc(S(=O)(=O)O)cc2cc(S(=O)(=O)O)c(N=Nc3ccc(N=Nc4c(O)ccc5ccc(S(=O)(=O)O)cc45)cc3Cl)c(O)c12)c1ccccc1` [Compound 45]: in the data set on HIV-1 RF (10% FCS), the inhibition at 1.25 µg/mL was 92%, the inhibition at 2.5 µg/mL was 99% and the inhibition at 5 µg/mL turned out to be 99%.
